Laboratory results reported in ChEMBL document CHEMBL1201862, “PubChem BioAssay data set” (2004).
Calls of active or inactive are those of the source.

Tests used:
[1] = Vero cell cytotoxicity, dose response, cytotoxicity control for Vif-APOBEC3G degradation inhibitor project, Vero cells (AID 1117358); format: functional; conditions: Human immunodeficiency virus 1, Vero
[2] = target: T1, Caspase-6 (Homo sapiens, UniProt P55212); assay: human caspase-6 inhibitors, dose response, biochemical, VEID-R110 fluorescence, cherry-pick (AID 720632)
T1 sequence (P55212 whole entry): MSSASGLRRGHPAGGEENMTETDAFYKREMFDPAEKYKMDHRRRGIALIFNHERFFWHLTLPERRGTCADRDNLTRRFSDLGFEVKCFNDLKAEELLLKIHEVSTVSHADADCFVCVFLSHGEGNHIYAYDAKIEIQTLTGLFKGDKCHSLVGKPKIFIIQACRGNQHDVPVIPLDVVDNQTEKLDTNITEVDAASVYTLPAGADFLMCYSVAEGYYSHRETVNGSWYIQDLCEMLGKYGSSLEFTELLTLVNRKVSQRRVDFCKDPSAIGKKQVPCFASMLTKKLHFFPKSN

[3] = inhibitors of Vif binding to APOBEC3G peptide, primary screen, biochemical, TR-FRET, GST-Vif 1-94, biotin-A3G peptide, dose response retest (AID 1117319); format: functional;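 note: TR-FRET signal of purified GST-Vif binding a biotinylated A3G peptide; inhibitors lower the FRET signal by blocking Vif and A3G binding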
[4] = inhibitors of PGC1a acetylation in cells, dose response, cell-based, cherry-picked samples (AID 720514); format: functional;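 note: potency may reflect raised or lowered acetylation signal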
[5] = Luminescence Cell-Based Dose Confirmation HTS to Identify Inhibitors of Platelet Dense Granule Release. [Related pubchem assays: 1663 (Primary HTS), 1678 (Summary of Project)]; format: functional
[6] = target: Luciferin 4-monooxygenase (Photinus pyralis, UniProt P08659); assay: firefly luciferase enzyme inhibitors, dose response, biochemical, luminescence (AID 1891)
Chain of Luciferin 4-monooxygenase (P08659 whole entry): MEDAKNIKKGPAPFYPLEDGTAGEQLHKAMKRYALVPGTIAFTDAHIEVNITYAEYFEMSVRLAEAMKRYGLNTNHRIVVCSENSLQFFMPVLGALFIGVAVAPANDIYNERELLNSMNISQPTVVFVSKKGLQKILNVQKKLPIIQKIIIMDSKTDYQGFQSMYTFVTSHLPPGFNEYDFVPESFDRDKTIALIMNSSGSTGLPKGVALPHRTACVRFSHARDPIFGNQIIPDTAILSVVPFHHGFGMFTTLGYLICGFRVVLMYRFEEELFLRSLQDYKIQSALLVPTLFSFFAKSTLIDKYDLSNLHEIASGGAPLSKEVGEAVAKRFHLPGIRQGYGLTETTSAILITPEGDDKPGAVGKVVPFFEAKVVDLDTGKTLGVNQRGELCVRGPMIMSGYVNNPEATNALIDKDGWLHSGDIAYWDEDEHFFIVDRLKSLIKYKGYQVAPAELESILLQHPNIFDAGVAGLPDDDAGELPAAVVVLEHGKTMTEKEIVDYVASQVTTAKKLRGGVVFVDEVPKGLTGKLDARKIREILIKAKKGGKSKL

[7] = target: T2, Cytochrome P450 1A2 (Homo sapiens, UniProt P05177);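 note: PubChem cytochrome P450 panel assay, CYP1A2 panel member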
T2 sequence (P05177 whole entry): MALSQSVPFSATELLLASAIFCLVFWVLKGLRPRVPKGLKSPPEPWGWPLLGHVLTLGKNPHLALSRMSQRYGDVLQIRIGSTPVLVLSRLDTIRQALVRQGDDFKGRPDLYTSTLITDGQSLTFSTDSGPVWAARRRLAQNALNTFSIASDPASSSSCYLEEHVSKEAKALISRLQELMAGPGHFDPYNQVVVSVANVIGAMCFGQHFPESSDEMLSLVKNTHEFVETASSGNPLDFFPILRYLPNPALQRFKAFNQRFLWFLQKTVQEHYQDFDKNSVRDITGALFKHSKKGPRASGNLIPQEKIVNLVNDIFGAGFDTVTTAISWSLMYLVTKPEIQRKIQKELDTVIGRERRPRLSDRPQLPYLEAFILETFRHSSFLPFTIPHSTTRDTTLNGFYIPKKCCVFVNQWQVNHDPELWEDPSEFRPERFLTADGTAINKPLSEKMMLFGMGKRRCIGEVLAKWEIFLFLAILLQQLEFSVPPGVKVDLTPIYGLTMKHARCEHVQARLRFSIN

[8] = Artemis endonuclease inhibitor potency, dose response, biochemical, fluorescence intensity (AID 720701); format: functional;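 note: Artemis endonuclease enzyme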
[9] = target: Cytochrome P450 2C19 (Homo sapiens, UniProt P33261); assay: Cytochrome panel assay with activity outcomes. Panel member name: p450-cyp2c19 Compounds with AC50 equal or less than 10 uM are considered active; format: functional; conditions: read-out: AC50
Chain of Cytochrome P450 2C19 (P33261 whole entry): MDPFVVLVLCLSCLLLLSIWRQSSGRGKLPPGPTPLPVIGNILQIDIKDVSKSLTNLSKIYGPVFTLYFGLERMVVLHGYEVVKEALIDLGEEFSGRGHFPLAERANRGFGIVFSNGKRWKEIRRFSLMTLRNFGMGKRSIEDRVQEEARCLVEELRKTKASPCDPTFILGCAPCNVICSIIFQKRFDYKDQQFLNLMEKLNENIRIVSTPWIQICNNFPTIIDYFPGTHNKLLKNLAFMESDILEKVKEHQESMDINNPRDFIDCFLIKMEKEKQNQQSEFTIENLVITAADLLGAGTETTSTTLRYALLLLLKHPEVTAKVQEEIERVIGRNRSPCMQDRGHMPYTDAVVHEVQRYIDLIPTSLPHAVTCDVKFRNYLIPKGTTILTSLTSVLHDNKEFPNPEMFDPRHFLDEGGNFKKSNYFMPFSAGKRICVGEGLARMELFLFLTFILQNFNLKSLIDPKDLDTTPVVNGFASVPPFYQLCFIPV

[10] = P. falciparum Dd2 growth inhibitors, dose response, SYBR Green, cherry-picked samples (AID 1159567); format: functional, cell-based
[11] = HepG2 cell cytotoxicity, dose response, cytotoxicity control, cherry-picked samples (AID 1159577); format: functional, cell-based
[12] = P. falciparum ATP4 D1247Y mutant growth inhibitors, dose response, NITD609-resistant line, SYBR Green, dry powder (AID 1159571); format: functional, cell-based;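 note: parasites synchronized at ring stage by sorbitol before testing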
[13] = P. falciparum Dd2 growth inhibitors, dose response, SYBR Green, dry powder samples (AID 1159566); format: functional, cell-based;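 note: potency for growth inhibition with lower SYBR green DNA signal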
[14] = P. falciparum 3D7-ScDHODH growth inhibitors, dose response, SYBR Green, dry powder samples (AID 1159570); format: functional, cell-based;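 note: parasite growth measured after 72 hours of compound exposure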

In the case of `CCc1nnc(NC(=O)c2ccc(S(=O)(=O)N(CC(C)C)CC(C)C)cc2)o1`, the CC50 [1] is reported as > 40 µM (active).

For `O=C1NC(Cc2ccc(O)cc2)c2nc3ccc(Br)cc3c(=O)n2-c2ncccc21` (configuration not stated), the AC50 [2] was 35.4 µM (active).

With `CC(OC(=O)/C=C/c1ccco1)C(=O)NC1CCCCC1` (configuration not stated) the IC50 [3] was > 100 µM (active).

With `C[C@H]1CN([C@@H](C)CO)S(=O)(=O)c2ccc(C#CC3CCCCC3)cc2O[C@@H]1CN(C)Cc1cccnc1` the AC50 [4] was 10.4 µM (active).

With `COc1ccccc1NC(=O)c1cc2ccc(O)cc2o/c1=N\O` the CC50 [1] was > 40 µM (active), the IC50 [3] was > 100 µM (active) and the EC50 [5] was 6.14 µM (active). The EC50 [6] was 1.03 µM (active).

For `O=C(N/N=C\c1ccc(-c2ccccc2[N+](=O)[O-])o1)C1COc2cc3ccccc3cc2O1` (configuration not stated), the AC50 [7] was 3.55 µM (inconclusive), the IC50 [8] was > 20 µM (inactive) and the AC50 [9] was 1.12 µM (inconclusive).

With `COc1ccc(NC(=O)N(C)C[C@@H]2Oc3c(NC(=O)c4nc5ccccc5s4)cccc3C(=O)N([C@@H](C)CO)C[C@H]2C)cc1` the AC50 [10] was 1.96 µM (active), the AC50 [11] was > 39 µM (inactive) and the AC50 [12] was 0.606 µM (active). For the same compound, the AC50 [13] was 1.3 µM (active) and the AC50 [14] was 0.499 µM (active).

For `COc1ccc2c3c(n(C)c2c1)[C@@H](CO)N(C(=O)C1CCC1)CC31CN(C(=O)Nc2cccc(F)c2)C1`, the AC50 [10] was 2.35 µM (active), the AC50 [12] was 0.535 µM (active) and the AC50 [13] was 0.779 µM (active). For the same compound, the AC50 [14] was 0.515 µM (active).

For `N#C[C@@H]1[C@H](c2ccc(C#CC3CCCCC3)cc2)[C@@H](CO)N1C(=O)Nc1ccc(F)cc1`, the AC50 [10] was 7.33 µM (active) and the AC50 [11] was 14 µM (active).
